Results from patent US12139492B2 (Endotarget Inc., priority 2021, dated 2024).
Like-named read-outs stand apart in the source and are kept apart here.

Experiments:
JeKo-1 cells = assay: Antiproliferative effect, MTS cell viability assay, JeKo-1 cells; type: cell-based; conditions: Homo sapiens; JeKo-1 mantle cell lymphoma cells; read-out: IC50 (anti-proliferation) JeKO-1 cells
Outline: (§1)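 MTS read-out, A490 of formazan from metabolically active cells; compound 0–10 μM (0, 0.001, 0.01, 0.1, 1, 10 μM), 72 h exposure.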

Mino cells = assay: Antiproliferative effect, MTS cell viability assay, Mino cells; type: cell-based; conditions: Homo sapiens, MINO, Mino mantle cell lymphoma cells; read-out: IC50 (anti-proliferation) Mino cells
Outline: as §1

BTK = BTK (Homo sapiens, UniProt Q06187); assay: Degradation of BTK protein in Namalwa cells (Western blot; DC50, Dmax); conditions: for DC50: cell line not given
[1] = read-out: DC50 (BTK degradation), concentration giving 50% reduction of BTK expression level
[2] = read-out: Dmax (BTK degradation)

Chain of BTK (Q06187 whole entry): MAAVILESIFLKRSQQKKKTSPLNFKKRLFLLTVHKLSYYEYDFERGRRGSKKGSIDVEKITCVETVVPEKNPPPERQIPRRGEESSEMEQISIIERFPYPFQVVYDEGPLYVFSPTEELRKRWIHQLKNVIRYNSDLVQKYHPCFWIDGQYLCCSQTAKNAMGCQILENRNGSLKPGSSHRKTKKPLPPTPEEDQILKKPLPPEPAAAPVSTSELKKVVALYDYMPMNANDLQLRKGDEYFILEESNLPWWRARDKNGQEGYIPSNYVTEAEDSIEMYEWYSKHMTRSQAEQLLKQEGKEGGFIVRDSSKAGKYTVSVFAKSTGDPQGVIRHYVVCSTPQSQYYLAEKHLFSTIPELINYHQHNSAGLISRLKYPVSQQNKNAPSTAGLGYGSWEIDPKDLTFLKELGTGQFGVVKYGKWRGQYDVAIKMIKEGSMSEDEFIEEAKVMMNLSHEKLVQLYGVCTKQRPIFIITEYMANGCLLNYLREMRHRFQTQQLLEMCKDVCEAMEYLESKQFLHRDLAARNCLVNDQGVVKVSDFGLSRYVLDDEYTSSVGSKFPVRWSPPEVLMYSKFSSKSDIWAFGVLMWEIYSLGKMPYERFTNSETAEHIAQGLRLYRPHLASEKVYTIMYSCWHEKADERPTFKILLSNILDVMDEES

Compound | IC50 (JeKo-1 cells) | IC50 (Mino cells) | DC50 (BTK; [1]) | Dmax (BTK; [2]) | Dmax (BTK) | DC50 (BTK; BTK degradation)
Nc1ncnc2c1c(-c1ccc(Oc3ccccc3)cc1)nn2C1CCN(C(=O)C2CC(N3CCN(c4ccc5c(c4)C(=O)N(C4CCC(=O)NC4=O)C5=O)CC3)C2)CC1 (stereo not shown) [Compound 507, 5-(4-(3-(4-(4-amino-3-(4-phenoxyphenyl)-1H-pyrazolo[3,4-d]pyrimidin-1-yl)piperidine-1-carbonyl)cyclobutyl)piperazin-1-yl)-2-(2,6-dioxopiperidin-3-yl)isoindoline-1,3-dione] | < 1 µM | < 1 µM | < 0.01 µM | > 90% |  | 
Nc1ncnc2c1c(-c1ccc(Oc3ccccc3)cc1)nn2C1CCN(CC2CC(N3CCN(c4ccc5c(c4)C(=O)N(C4CCC(=O)NC4=O)C5=O)CC3)C2)CC1 (stereo not shown) [Compound 530, 5-(4-(3-((4-(4-amino-3-(4-phenoxyphenyl)-1H-pyrazolo[3,4-d]pyrimidin-1-yl)piperidin-1-yl)methyl)cyclobutyl)piperazin-1-yl)-2-(2,6-dioxopiperidin-3-yl)isoindoline-1,3-dione] | < 1 µM | < 1 µM | < 0.01 µM | > 90% |  | 
Nc1ncnc2c1c(-c1ccc(Oc3ccccc3)cc1)nn2C1CCN(C2CCN(C(=O)N3CCN(CCC4CCN(c5ccc6c(c5)CN(C5CCC(=O)NC5=O)C6=O)CC4)CC3)CC2)CC1 (stereo not shown) [Compound 248] | 1 to 10 µM | < 1 µM |  |  | > 75% | 0.01 to 0.05 µM
Nc1ncnc2c1c(-c1ccc(Oc3ccccc3)cc1)nn2C1CCC(C(=O)NCCN2CCN(c3ccc4c(c3)CN(C3CCC(=O)NC3=O)C4=O)CC2)CC1 (stereo not shown) [Compound 523, 4-(4-amino-3-(4-phenoxyphenyl)-1H-pyrazolo[3,4-d]pyrimidin-1-yl)-N-(2-(4-(2-(2,6-dioxopiperidin-3-yl)-1-oxoisoindolin-5-yl)piperazin-1-yl)ethyl)cyclohexane-1-carboxamide] | < 1 µM | < 1 µM | < 0.01 µM | > 90% |  | 
NC(=O)c1c(-c2ccc(Oc3ccccc3)cc2)nn2c1NCC[C@H]2C1CCN(C(=O)N2CCN(CCN3CCN(c4ccc5c(c4)CN(C4CCC(=O)NC4=O)C5=O)CC3)CC2)CC1 (stereo partly drawn) [Compound 298, (7S)-7-(1-(4-(2-(4-(2-(2,6-dioxopiperidin-3-yl)-1-oxoisoindolin-5-yl)piperazin-1-yl)ethyl)piperazine-1-carbonyl)piperidin-4-yl)-2-(4-phenoxyphenyl)-4,5,6,7-tetrahydropyrazolo[1,5-a]pyrimidine-3-carboxamide] | 1 to 10 µM | 1 to 10 µM |  |  | > 90% | 0.01 to 0.05 µM
NC(=O)c1c(-c2ccc(Oc3ccccc3)cc2)nn2c1NCC[C@H]2C1CCN(C2CCN(CC3CCN(c4ccc5c(c4)CN(C4CCC(=O)NC4=O)C5=O)CC3)CC2)CC1 (stereo partly drawn) [Compound 322, (7S)-7-(1′-((1-(2-(2,6-dioxopiperidin-3-yl)-1-oxoisoindolin-5-yl)piperidin-4-yl)methyl)-[1,4′-bipiperidin]-4-yl)-2-(4-phenoxyphenyl)-4,5,6,7-tetrahydropyrazolo[1,5-a]pyrimidine-3-carboxamide] | 1 to 10 µM | 1 to 10 µM |  |  | > 90% | 0.01 to 0.05 µM
Nc1ncnc2c1c(-c1ccc(Oc3ccccc3)cc1)nn2C1CCN(CC2CCN(CC3CN(CC4CN(c5ccc6c(c5)CN(C5CCC(=O)NC5=O)C6=O)C4)C3)C2)CC1 (stereo not shown) [Compound 428, 3-(5-(3-((3-((3-((4-(4-amino-3-(4-phenoxyphenyl)-1H-pyrazolo[3,4-d]pyrimidin-1-yl)piperidin-1-yl)methyl)pyrrolidin-1-yl)methyl)azetidin-1-yl)methyl)azetidin-1-yl)-1-oxoisoindolin-2-yl)piperidine-2,6-dione] | 1 to 10 µM | 1 to 10 µM | 0.01 to 0.05 µM | > 90% |  | 
NC(=O)c1c(-c2ccc(Oc3ccccc3)cc2)nn2c1NCC[C@H]2C1CCN(C(=O)N2CCN(CC3CCN(c4ccc5c(c4)CN(C4CCC(=O)NC4=O)C5=O)CC3)CC2)CC1 (stereo partly drawn) [Compound 290, (7S)-7-(1-(4-((1-(2-(2,6-dioxopiperidin-3-yl)-1-oxoisoindolin 5-yl)piperidin-4-yl)methyl)piperazine-1-carbonyl)piperidin-4-yl)-2-(4-phenoxyphenyl)-4,5,6,7-tetrahydropyrazolo[1,5-a]pyrimidine-3-carboxamide] | < 1 µM | 1 to 10 µM |  |  | > 90% | < 0.01 µM
Nc1ncnc2c1c(-c1ccc(Oc3ccccc3)cc1)nn2C1CCN(CCN2CCC(CSc3ccc4c(c3)CN(C3CCC(=O)NC3=O)C4=O)CC2)CC1 (stereo not shown) [Compound 470, 3-(5-(((1-(2-(4-(4-amino-3-(4-phenoxyphenyl)-1H-pyrazolo[3,4-d]pyrimidin-1-yl)piperidin-1-yl)ethyl)piperidin-4-yl)methyl)thio)-1-oxoisoindolin-2-yl)piperidine-2,6-dione] | 1 to 10 µM | < 1 µM | < 0.01 µM | > 90% |  | 
Nc1ncnc2c1c(-c1ccc(Oc3ccccc3)cc1)nn2C1CCC(CN2CC(N3CCN(c4ccc5c(c4)CN(C4CCC(=O)NC4=O)C5=O)CC3)C2)CC1 (stereo not shown) [Compound 533, 3-(5-(4-(1-((4-(4-amino-3-(4-phenoxyphenyl)-1H-pyrazolo[3,4-d]pyrimidin-1-yl)cyclohexyl)methyl)azetidin-3-yl)piperazin-1-yl)-1-oxoisoindolin-2-yl)piperidine-2,6-dione] | < 1 µM | < 1 µM | < 0.01 µM | > 90% |  | 
NC(=O)c1c(-c2ccc(Oc3ccccc3)cc2)nn2c1NCC[C@H]2C1CCN(CC2CCN(C(=O)N3CCN(Cc4ccc5c(c4)CN(C4CCC(=O)NC4=O)C5=O)CC3)CC2)CC1 (stereo partly drawn) [Compound 400, (7S)-7-(1-((1-(4-((2-(2,6-dioxopiperidin-3-yl)-1-oxoisoindolin-5-yl)methyl)piperazine-1-carbonyl)piperidin-4-yl)methyl)piperidin-4-yl)-2-(4-phenoxyphenyl)-4,5,6,7-tetrahydropyrazolo[1,5-a]pyrimidine-3-carboxamide] | > 10 µM | > 10 µM | > 0.05 µM | > 50% |  | 
NC(=O)c1c(-c2ccc(Oc3ccccc3)cc2)nn2c1NCC[C@H]2C1CCN(CC2CCN(CCN3CCN(c4ccc5c(c4)C(=O)N(C4CCC(=O)NC4=O)C5=O)CC3)CC2)CC1 (stereo partly drawn) [Compound 331, (7S)-7-(1-((1-(2-(4-(2-(2,6-dioxopiperidin-3-yl)-1,3-dioxoisoindolin-5-yl)piperazin-1-yl)ethyl)piperidin-4-yl)methyl)piperidin-4-yl)-2-(4-phenoxyphenyl)-4,5,6,7-tetrahydropyrazolo[1,5-a]pyrimidine-3-carboxamide] | 1 to 10 µM | > 10 µM |  |  | > 75% | > 0.05 µM
Nc1ncnc2c1c(-c1ccc(Oc3ccccc3)cc1)nn2C1CCN(C[C@H]2CCN(C[C@H]3CCN(c4ccc5c(c4)C(=O)N(C4CCC(=O)NC4=O)C5=O)C3)C2)CC1 (stereo partly drawn) [Compound 447a, 5-((R)-3-(((R)-3-((4-(4-amino-3-(4-phenoxyphenyl)-1H-pyrazolo[3,4-d]pyrimidin-1-yl)piperidin-1-yl)methyl)pyrrolidin-1-yl)methyl)pyrrolidin-1-yl)-2-(2,6-dioxopiperidin-3-yl)isoindoline-1,3-dione] | 1 to 10 µM | 1 to 10 µM | 0.01 to 0.05 µM | > 90% |  | 
